What all share (assay): Signal transduction (intracellular Ca++, FLIPR), functional antagonistic activity
Common to all, as to assay type: cell-based

In one test the target is h-NK1 (Homo sapiens, UniProt P25103). Conditions: Ca++ peak, read-out: pIC50 h-NK1 (converted). The procedure: (§1) This test evaluates in vitro functional NK1 antagonistic activity. For the measurements of intracellular Ca^++ concentrations the cells were grown on 96-well (black wall/transparent bottom) plates from Costar for 2 days until they reached confluence. The cells were loaded with 2 μM Fluo3 in DMEM containing 0.1% BSA and 2.5 mM probenecid for 1 h at 37° C. They were washed 3× with a Krebs buffer (140 mM NaCl, 1 mM MgCl2×6H2O, 5 mM KCl, 10 mM glucose, 5 mM HEPES; 1.25 mM CaCl2; pH 7.4) containing 2.5 mM probenecid and 0.1% BSA (Ca^++-buffer). The cells were preincubated with a concentration range of antagonists for 20 min at RT and Ca^++-signals after addition of the agonists were measured in a Fluorescence Image Plate
Chain of h-NK1 (P25103 whole entry): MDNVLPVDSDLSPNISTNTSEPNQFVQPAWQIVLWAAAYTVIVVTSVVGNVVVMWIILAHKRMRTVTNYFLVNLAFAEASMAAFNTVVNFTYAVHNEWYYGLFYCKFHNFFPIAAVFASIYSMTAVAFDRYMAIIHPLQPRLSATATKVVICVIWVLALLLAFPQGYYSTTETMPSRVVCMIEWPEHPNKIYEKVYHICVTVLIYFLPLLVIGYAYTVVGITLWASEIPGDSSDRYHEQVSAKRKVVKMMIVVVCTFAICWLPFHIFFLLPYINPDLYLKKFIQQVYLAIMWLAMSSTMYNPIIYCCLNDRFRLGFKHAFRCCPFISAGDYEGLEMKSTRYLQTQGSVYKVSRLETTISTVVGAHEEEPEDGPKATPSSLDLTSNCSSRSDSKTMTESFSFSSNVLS
(§2) Reader (FLIPR from Molecular Devices, Crawley, England). The peak of the Ca^++-transient was considered as the relevant signal and the mean values of corresponding wells were analysed as described below.
(§3) The sigmoidal dose response curves were analysed by computerised curve-fitting, using the GraphPad Program. The EC50-value of a compound is the effective dose showing 50% of maximal effect. For mean curves the response to the agonist with the highest potency was normalised to 100%. For antagonist responses the IC50-value was calculated using non-linear regression.
(§4) The last colums indicates—without being limited thereto—for which action the compounds might be most suitable. Of course, since for some neurokinin receptors no data was determined, it is obvious that these compounds might be attributed to another suitable use.

The next test has as its target T1, h-NK3 (Homo sapiens, UniProt P29371).
T1 sequence (P29371 1-465): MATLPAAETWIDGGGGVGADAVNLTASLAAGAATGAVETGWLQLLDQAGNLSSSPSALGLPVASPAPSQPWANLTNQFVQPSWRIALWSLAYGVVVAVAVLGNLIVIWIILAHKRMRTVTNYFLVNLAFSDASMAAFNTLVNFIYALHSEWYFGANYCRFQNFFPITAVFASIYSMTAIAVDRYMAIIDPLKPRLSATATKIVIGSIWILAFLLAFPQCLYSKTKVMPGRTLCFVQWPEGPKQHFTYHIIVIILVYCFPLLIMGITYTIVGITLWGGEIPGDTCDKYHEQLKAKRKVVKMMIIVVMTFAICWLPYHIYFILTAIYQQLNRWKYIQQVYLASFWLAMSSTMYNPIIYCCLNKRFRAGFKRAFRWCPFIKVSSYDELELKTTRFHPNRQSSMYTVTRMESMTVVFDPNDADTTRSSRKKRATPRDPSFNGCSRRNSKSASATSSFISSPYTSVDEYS
Conditions: Ca++ peak, read-out: pIC50 h-NK3 (converted). The procedure: [Worded in the source for another target; this target is reported under the same test.] as §1, §2, §3, §4

A further test concerns the target T2, h-NK2 (Homo sapiens, UniProt P21452).
T2 sequence (P21452 1-398): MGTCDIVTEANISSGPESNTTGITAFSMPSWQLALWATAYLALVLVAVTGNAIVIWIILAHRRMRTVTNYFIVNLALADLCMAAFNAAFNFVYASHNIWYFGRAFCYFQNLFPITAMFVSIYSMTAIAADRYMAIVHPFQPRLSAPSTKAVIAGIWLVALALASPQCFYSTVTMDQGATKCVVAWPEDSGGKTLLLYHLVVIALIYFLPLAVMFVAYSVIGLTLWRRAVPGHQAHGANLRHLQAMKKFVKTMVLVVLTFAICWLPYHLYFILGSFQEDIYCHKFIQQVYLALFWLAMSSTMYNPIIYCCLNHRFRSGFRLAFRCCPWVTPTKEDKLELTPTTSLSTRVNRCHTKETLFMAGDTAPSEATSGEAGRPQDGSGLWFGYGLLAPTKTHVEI
Conditions: Ca++ peak, read-out: pIC50 h-NK2 (converted). The procedure:
[Worded in the source for another target; this target is reported under the same test.] as §1, §2, §3, §4

As to `CC(C)(C)OC(=O)N1CCCC(N2CCN(C3CCN(C(=O)c4cc(C(F)(F)F)cc(C(F)(F)F)c4)C(Cc4ccccc4)C3)CC2)CC1` (stereo not shown) [Compound 1], the IC50 on h-NK1 was 0.0324 µM; at h-NK3, 10 µM.

In the case of `O=C(c1ccccc1)N1CCCC(N2CCN(C3CCN(C(=O)c4cc(C(F)(F)F)cc(C(F)(F)F)c4)C(Cc4ccccc4)C3)CC2)CC1` (stereo not shown) [Compound 3], the IC50 on h-NK1 is 0.2 µM.

Regarding `CCOC(=O)N1CCCC(N2CCN(C3CCN(C(=O)c4cc(C(F)(F)F)cc(C(F)(F)F)c4)C(Cc4ccccc4)C3)CC2)CC1` (stereo not shown) [Compound 4], the IC50 at h-NK1 was 0.166 µM.

As to `O=C(c1ccc(F)c(F)c1)N1CCCC(N2CCN(C3CCN(C(=O)c4cc(C(F)(F)F)cc(C(F)(F)F)c4)C(Cc4ccccc4)C3)CC2)CC1` (stereo not shown) [Compound 5], the IC50 on h-NK1 was 0.148 µM.

As for `O=C(c1cccc(F)c1)N1CCCC(N2CCN(C3CCN(C(=O)c4cc(C(F)(F)F)cc(C(F)(F)F)c4)C(Cc4ccccc4)C3)CC2)CC1` (stereo not shown) [Compound 6], the IC50 at h-NK2 is 9.33 µM; on h-NK1, 0.158 µM; on h-NK3, 1.35 µM.

Take `O=C(c1ccoc1)N1CCCC(N2CCN(C3CCN(C(=O)c4cc(C(F)(F)F)cc(C(F)(F)F)c4)C(Cc4ccccc4)C3)CC2)CC1` (stereo not shown) [Compound 7]: the IC50 on h-NK1 is 0.0288 µM; at h-NK3 it was 1.91 µM.

With `Cc1cc(C(=O)N2CCCC(N3CCN(C4CCN(C(=O)c5cc(C(F)(F)F)cc(C(F)(F)F)c5)C(Cc5ccccc5)C4)CC3)CC2)no1` (stereo not shown) [Compound 8], the IC50 is 0.0282 µM at h-NK1 and 10 µM on h-NK3.

For the molecule `Cc1cccc(C(=O)N2CCCC(N3CCN(C4CCN(C(=O)c5cc(C(F)(F)F)cc(C(F)(F)F)c5)C(Cc5ccccc5)C4)CC3)CC2)c1` (stereo not shown) [Compound 9], the IC50 at h-NK1 was 0.302 µM.

(Values after US7514424B2, “Substituted 4-(4-piperidin-4-yl-piperazin-1-yl)-azepane derivatives and their use as neurokinin antagonists” (Janssen Pharmaceutica N.V., priority 2002, dated 2009).)
